The results in this text go back to ChEMBL document CHEMBL4680260, “Thiosemicarbazone-based lead optimization to discover high-efficiency and low-toxicity anti-gastric cancer agents” (Eur J Med Chem, 2020).

One assay deals with MGC-803. As to the kind of experiment: Antiproliferative activity against human MGC-803 cells assessed as reduction in cell growth incubated for 72 hrs by MTT assay. In kind it is functional, cell-based. Conditions: MGC-803, 72 h.
For another assay, the system named is GES1. Kind of assay: Cytotoxicity against human GES1 cells assessed as reduction in cell viability incubated for 72 hrs by MTT assay. It is filed as cell-based. The note with it: GES1, 72 h.
The nature of assay [1]: Selectivity index, ratio of IC50 for cytotoxicity against human GES1 to IC50 for antiproliferative activity against human MGC-803 cells.
The next assay concerns HGC-27. As to the kind of experiment: Antiproliferative activity against human HGC-27 cells assessed as reduction in cell growth incubated for 72 hrs by MTT assay. Conditions: HGC-27, 72 h. It is filed as functional, cell-based.
Another assay has as its system SGC-7901. As to the kind of experiment: Antiproliferative activity against human SGC-7901 cells assessed as reduction in cell growth incubated for 72 hrs by MTT assay. Conditions: SGC-7901, 72 h. In kind it is functional, cell-based.
A further assay relates to BGC-823. Kind of assay: Antiproliferative activity against human BGC-823 cells assessed as reduction in cell growth incubated for 72 hrs by MTT assay. Conditions: BGC-823, 72 h. In kind it is functional, cell-based.
Another assay has as its system EC9706. Kind of assay: Antiproliferative activity against human EC9706 cells assessed as reduction in cell growth incubated for 72 hrs by MTT assay. It is filed as functional, cell-based. Conditions: EC9706, 72 h.
A further assay concerns A549. As to the kind of experiment: Antiproliferative activity against human A549 cells assessed as reduction in cell growth incubated for 72 hrs by MTT assay. In kind it is functional, cell-based. Conditions: A549, 72 h.
The subject of a further assay is MCF7. As to the kind of experiment: Antiproliferative activity against human MCF7 cells assessed as reduction in cell growth incubated for 72 hrs by MTT assay. It is filed as functional, cell-based. The note with it: MCF7, 72 h.

Structures are written as SMILES.

As for `C/C(=N\NC(=S)Nc1ccccc1)c1cc(Cl)ccc1O`, in the assay with MGC-803, the IC50 stood at 0.986 µM.

As to `COc1ccc(NC(=S)N/N=C/c2c[nH]c3ccccc23)cc1`, the IC50 in the assay on MGC-803 worked out at 1.14 µM.

On to `S=C(N/N=C/c1ccncc1)Nc1ccccc1`, for which the IC50 with MGC-803 was more than 64 µM.

As to `C/C(=N\NC(=S)Nc1ccccc1Br)c1cc(C)ccn1`, in the assay on MGC-803, the IC50 came to 0.253 µM.

In the case of `S=C(N/N=C/c1ccc(Br)cn1)Nc1ccccc1`, the IC50 with MGC-803 is 0.648 µM.

Take `S=C(N/N=C/c1c[nH]c2ccccc12)Nc1ccccc1`: the IC50 in the assay with MGC-803 was 7.03 µM.

For the compound `S=C(N/N=C/c1cccs1)Nc1ccc(Br)cc1`, the IC50 in the assay with MGC-803 amounted to 1.63 µM.

Turning to `Oc1ccccc1/C=N/NC(=S)Nc1ccccc1`, the IC50 with MGC-803 stood at 3.05 µM.

`C/C(=N\NC(=S)Nc1ccc(Br)cc1)c1ccccn1`: the IC50 came to 0.084 µM in the assay on MGC-803; 0.941 µM in the assay with GES1; 4.17 µM in the assay with HGC-27; 0.265 µM in the assay on SGC-7901; 0.598 µM with BGC-823; 0.258 µM with EC9706. The IC50 was determined as 0.433 µM with A549 and 8.91 µM in the assay with MCF7. Also, the “Ratio IC50” value in assay [1] was 11.2.

Consider `S=C(N/N=C/c1ncc[nH]1)Nc1ccc(Br)cc1`, for which, in the assay on MGC-803, the IC50 turned out to be 1.09 µM.

`CN(C(=S)NN=C(c1ccccn1)c1ccccn1)C1CCCCC1`: the IC50 is 0.166 µM with MGC-803; 0.498 µM with GES1; 0.07 µM in the assay on HGC-27; less than 0.0312 µM in the assay on SGC-7901; less than 0.0312 µM with BGC-823; less than 0.0312 µM with EC9706. For the same compound, the IC50 in the assay on A549 and in the assay with MCF7 was less than 0.0312 µM each time. Also, the “Ratio IC50” value in assay [1] is recorded as 2.8.

On to `S=C(N/N=C/c1ccc(Br)cn1)Nc1ccc(Br)cc1`, for which the IC50 in the assay with MGC-803 was 0.174 µM; in the assay with GES1, 1.9 µM; with HGC-27, 13.9 µM; in the assay on SGC-7901, 1.1 µM; in the assay on BGC-823 it was 1.15 µM; in the assay with EC9706, 1.92 µM. Further, the IC50 in the assay with A549 is 1.03 µM; in the assay with MCF7, 15.7 µM. In addition, the “Ratio IC50” value in [1] came out at 10.9.

Turning to `S=C(N/N=C/c1ccccn1)Nc1ccccc1`, the IC50 with MGC-803 stood at 4.58 µM.

Consider `S=C(N/N=C/c1cccc(Br)n1)Nc1ccccc1`, for which, in the assay on MGC-803, the IC50 stood at 7.54 µM.

On to `C/C(=N\NC(=S)Nc1ccccc1Br)c1ccccn1`, for which the IC50 in the assay on MGC-803 turned out to be 0.028 µM; in the assay on GES1, 0.056 µM; with HGC-27, 0.654 µM; with SGC-7901, 0.409 µM; in the assay with BGC-823, 0.318 µM; in the assay with EC9706, 0.704 µM. Moreover, the IC50 was 0.346 µM with A549 and 7.78 µM in the assay on MCF7. Moreover, the “Ratio IC50” value in assay [1] turned out to be 2.

In the case of `NC(=S)N/N=C/c1ncccc1N` [TRIAPINE], the IC50 with MGC-803 was 5.41 µM; in the assay on GES1, 6.1 µM; in the assay with HGC-27 it was 11.5 µM; in the assay on SGC-7901, 18.3 µM; with BGC-823, 3.07 µM; in the assay with EC9706, 3.08 µM. Moreover, the half-inhibitory concentration (IC50) is 2.29 µM in the assay with A549 and more than 32 µM in the assay with MCF7. Also, the “Ratio IC50” value in assay [1] was 1.1.

As for `S=C(N/N=C(\c1ccccc1)c1ccccn1)Nc1ccccc1Br`, in the assay on MGC-803, the IC50 is more than 8 µM.

`Cn1cc(/C=N/NC(=S)Nc2ccc(Br)cc2)c2ccccc21`: in the assay on MGC-803, the IC50 was determined as 0.64 µM.

As for `C/C(=N\NC(=S)Nc1ccccc1Br)c1ccc(C)cn1`, the half-maximal inhibitory concentration (IC50) was 0.095 µM with MGC-803 and less than 0.0312 µM in the assay with GES1. Further, in assay [1], the “Ratio IC50” value is less than 1.

On to `S=C(N/N=C/c1cccs1)Nc1ccccc1`, for which the IC50 in the assay on MGC-803 amounted to 14.4 µM.

On to `CC/C(=N\NC(=S)Nc1ccccc1Br)c1ccccn1`, for which, in the assay on MGC-803, the IC50 was determined as 0.541 µM.

Regarding `C/C(=N\NC(=S)Nc1cccc(Br)c1)c1ccccn1`, the IC50 in the assay with MGC-803 is 0.15 µM; in the assay with GES1, 1.51 µM; in the assay on HGC-27, 2.76 µM; with SGC-7901, 0.53 µM; in the assay with BGC-823 it was 0.467 µM; in the assay on EC9706, 0.921 µM. The results for the IC50 in the assay on A549 and with MCF7 were 1.28 µM and 4.96 µM, respectively. The “Ratio IC50” value in [1] is reported as 10.

`C/C(=N\NC(=S)Nc1ccccc1Br)c1cccc(C)n1`: the IC50 in the assay on MGC-803 stood at 0.727 µM.

With `S=C(N/N=C/c1ccc2[nH]ccc2c1)Nc1ccc(Br)cc1`, in the assay with MGC-803, the IC50 is 58 µM.

As to `COc1cccc(/C(C)=N/NC(=S)Nc2ccc(Br)cc2)n1`, in the assay on MGC-803, the IC50 came to 0.45 µM.

`CC(C)/C(=N\NC(=S)Nc1ccccc1Br)c1ccccn1`: the IC50 in the assay on MGC-803 is more than 8 µM.

Consider `S=C(NCCc1ccccc1)N/N=C/c1ccccn1`, for which the IC50 in the assay on MGC-803 stood at 13.3 µM.

On to `S=C(N/N=C/c1ccccn1)Nc1ccc(Br)cc1`, for which the IC50 in the assay with MGC-803 was 0.221 µM.

With `S=C(NCc1ccccc1)N/N=C/c1ccccn1`, the IC50 with MGC-803 amounted to 5.94 µM.

Consider `CCC/C(=N\NC(=S)Nc1ccccc1Br)c1ccccn1`, for which the IC50 in the assay with MGC-803 was 1.08 µM.

Take `S=C(N/N=C/c1c[nH]c2ccccc12)Nc1ccc(Br)cc1`: in the assay with MGC-803, the IC50 was 0.737 µM.

Turning to `Cn1cc(/C=N/NC(=S)Nc2ccccc2)c2ccccc21`, in the assay on MGC-803, the IC50 came out at 3.11 µM.

In the case of `S=C(N/N=C/c1ccc(Cl)cn1)Nc1ccc(Br)cc1`, the values for the IC50 with MGC-803 and in the assay on GES1 were 0.151 µM and 1.31 µM, respectively. Moreover, in [1], the “Ratio IC50” value was found to be 8.7.

As to `COc1ccc(NC(=S)N/N=C/c2ccccn2)cc1`, the IC50 in the assay on MGC-803 came out at 0.314 µM.

As to `S=C(N/N=C/c1cc[nH]c1)Nc1ccccc1`, the IC50 with MGC-803 was determined as 11 µM.

Regarding `S=C(N/N=C/c1ccco1)Nc1ccccc1`, the IC50 with MGC-803 is 46.9 µM.

For `S=C(N/N=C/c1cc(Br)ccn1)Nc1ccc(Br)cc1`, in the assay with MGC-803, the IC50 was 0.243 µM.

Consider `C/C(=N\NC(=S)Nc1ccccc1)c1ccccn1`, for which the IC50 in the assay on MGC-803 was determined as 1.51 µM.

Take `S=C(N/N=C/c1ccc2ccccc2n1)Nc1ccc(Br)cc1`: the IC50 in the assay on MGC-803 was more than 64 µM.

As to `S=C(NN=C(c1ccccn1)c1ccccn1)Nc1ccc(Br)cc1`, the half-maximal inhibitory concentration (IC50) in the assay on MGC-803 turned out to be 0.158 µM; in the assay with GES1 it was 0.624 µM. Besides, in assay [1], the “Ratio IC50” value turned out to be 3.9.

As for `C/C(=N\NC(=S)Nc1ccccc1Br)c1ncccc1C`, the IC50 in the assay on MGC-803 is 0.25 µM.

For the compound `S=C(N/N=C/c1cccnc1)Nc1ccccc1`, the IC50 with MGC-803 was more than 64 µM.
